Measured values taken from ChEMBL document CHEMBL3632604, “Anti-inflammatory Inositol Derivatives from the Whole Plant of Inula cappa” (J Nat Prod, 2015).
Activity calls are given as the source filed them. No cut-off for these calls is given here.

How the values were obtained:
[1] = tested on: RAW264.7; test: Antiinflammatory activity in mouse RAW264.7 cells assessed as inhibition of LPS-induced nitric oxide production at 10 uM preincubated for 30 mins followed by LPS stimulation measured after 24 hrs by Griess assay relative to control; type: functional
[2] = tested on: RAW264.7; test: Antiinflammatory activity in mouse RAW264.7 cells assessed as inhibition of LPS-induced nitric oxide production preincubated for 30 mins followed by LPS stimulation measured after 24 hrs by Griess assay; type: functional, cell-based

IC50 [2]	Compound	inhibition [1]	inhibition at 10 µM [1]
7 µM	C/C=C(/C)C(=O)O[C@@H]1[C@@H](O)[C@H](OC(=O)/C(C)=C\C)[C@H](OC(=O)/C(C)=C\C)[C@@H](O)[C@H]1OC(=O)/C(C)=C\C		39.7%
9.9 µM	C/C=C(/C)C(=O)O[C@H]1[C@H](OC(=O)/C(C)=C\C)[C@H](OC(=O)/C(C)=C\C)[C@@H](O)[C@@H](OC(=O)/C(C)=C\C)[C@@H]1O		59.6%
9.6 µM	C/C=C(/C)C(=O)O[C@@H]1[C@@H](O)[C@H](OC(=O)/C(C)=C\C)[C@@H](OC(=O)/C(C)=C\C)[C@H](O)[C@@H]1OC(C)=O	Active	
7.6 µM	C/C=C(/C)C(=O)O[C@@H]1[C@@H](O)[C@H](OC(=O)/C(C)=C\C)[C@@H](OC(=O)/C(C)=C\C)[C@H](O)[C@@H]1OC(=O)C(C)C		47.2%
11.9 µM	C/C=C(/C)C(=O)O[C@@H]1[C@H](O)[C@@H](OC(C)=O)[C@@H](OC(=O)/C(C)=C\C)[C@H](OC(=O)/C(C)=C\C)[C@H]1O		43.4%
19 µM	C/C=C(/C)C(=O)O[C@@H]1[C@@H](O)[C@H](OC(=O)/C(C)=C\C)[C@@H](OC(=O)/C(C)=C\C)[C@@H](OC(=O)/C(C)=C\C)[C@H]1O		47.9%
9.8 µM	C/C=C(/C)C(=O)O[C@@H]1[C@@H](O)[C@@H](OC(=O)/C(C)=C\C)[C@@H](OC(=O)/C(C)=C\C)[C@H](O)[C@H]1OC(=O)/C(C)=C\C		42.1%

Further lines, the compound ahead of its results:

Compound	IC50 [2]	inhibition [1]	inhibition at 10 µM [1]
C/C=C(/C)C(=O)O[C@@H]1[C@@H](O)[C@H](O)[C@@H](OC(=O)/C(C)=C\C)[C@@H](OC(=O)/C(C)=C\C)[C@H]1O		Active	
C/C=C(/C)C(=O)O[C@@H]1[C@@H](O)[C@H](OC(=O)/C(C)=C\C)[C@@H](OC(=O)/C(C)=C\C)[C@H](O)[C@@H]1O	23.4 µM		37.4%
C/C=C(/C)C(=O)O[C@H]1[C@@H](O)[C@@H](OC(C)=O)[C@H](OC(=O)/C(C)=C\C)[C@@H](OC(=O)/C(C)=C\C)[C@@H]1O			38.3%
C/C=C(/C)C(=O)O[C@@H]1[C@@H](O)[C@@H](OC(=O)/C=C(\C)CC)[C@H](O)[C@@H](O)[C@@H]1OC(=O)/C(C)=C\C	8.4 µM	Active	
Cc1ccc(-c2cc(C(F)(F)F)nn2-c2ccc(S(N)(=O)=O)cc2)cc1 [CELECOXIB]	1.6 µM		59.2%
C/C=C(/C)C(=O)O[C@@H]1[C@H](OC(C)=O)[C@@H](OC(C)=O)[C@@H](OC(=O)/C(C)=C\C)[C@H](O)[C@H]1OC(=O)/C(C)=C\C	7.1 µM	Active	
C/C=C(/C)C(=O)O[C@H]1[C@H](O)[C@@H](O)[C@H](OC(=O)/C(C)=C\C)[C@H](OC(=O)/C(C)=C\C)[C@H]1O	8.9 µM	Active	
C/C=C(/C)C(=O)O[C@H]1[C@H](O)[C@H](O)[C@H](OC(=O)/C=C(\C)CC)[C@@H](O)[C@@H]1OC(=O)/C(C)=C\C		Active	
